pIC50: −log10 of the molar value.

Sequence of Substance-P receptor (P25103 whole entry): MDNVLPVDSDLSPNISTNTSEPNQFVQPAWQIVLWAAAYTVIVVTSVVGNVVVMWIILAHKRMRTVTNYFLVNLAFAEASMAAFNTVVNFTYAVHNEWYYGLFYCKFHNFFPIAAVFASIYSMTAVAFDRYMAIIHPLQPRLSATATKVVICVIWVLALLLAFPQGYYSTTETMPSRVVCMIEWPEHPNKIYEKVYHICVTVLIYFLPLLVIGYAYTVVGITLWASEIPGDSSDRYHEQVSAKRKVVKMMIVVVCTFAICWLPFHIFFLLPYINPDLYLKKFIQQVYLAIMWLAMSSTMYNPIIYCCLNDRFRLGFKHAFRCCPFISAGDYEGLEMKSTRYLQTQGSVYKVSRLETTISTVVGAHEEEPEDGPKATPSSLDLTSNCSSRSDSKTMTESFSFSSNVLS

The experiment concerns the target Substance-P receptor (Homo sapiens, UniProt P25103). Kind of experiment: Ability to displace [125I]-substance P from hNK1 receptor in chinese hamster ovarian (CHO) cells. It counts as cell-based.
For orientation: pIC50 means −log10 of the IC50, conventionally taken in molar units. With `CS(=O)(=O)N1CC2(CCN(C(=O)[C@H](COCc3ccccc3)NCc3ccc(Cl)c(Cl)c3)CC2)c2ccccc21`, the negative-log IC50 (pIC50) was 7.74. With `CS(=O)(=O)N1CC2(CCN(C(=O)C(COCc3ccccc3)NCc3ccccc3Cl)CC2)c2ccccc21` (centres undefined) the figure was 6.27. The value for `CS(=O)(=O)N1CC2(CCN(C(=O)C(COCc3ccccc3)NS(=O)(=O)c3ccc(Cl)c(Cl)c3)CC2)c2ccccc21` (centres undefined) was 7.06; that for `CS(=O)(=O)N1CC2(CCN(C(=O)[C@H](COCc3cc(C(F)(F)F)cc(C(F)(F)F)c3)NC(=O)c3ccc(Cl)c(Cl)c3)CC2)c2ccccc21` was 5.89; that for `CS(=O)(=O)N1CC2(CCN(C(=O)C(COCc3ccccc3)NCc3c(Cl)cccc3Cl)CC2)c2ccccc21` (centres undefined) was 6.05. Compound `Cc1cccc(CNC(COCc2ccccc2)C(=O)N2CCC3(CC2)CN(S(C)(=O)=O)c2ccccc23)c1` (centres undefined) gave a pIC50 of 7.26. With `CS(=O)(=O)N1CC2(CCN(C(=O)[C@H](COCc3ccccc3Cl)NCc3ccc(Cl)c(Cl)c3)CC2)c2ccccc21` the figure was 7.47.

On to `CS(=O)(=O)N1CC2(CCN(C(=O)[C@@H](COCc3ccccc3)NCc3ccc(Cl)c(Cl)c3)CC2)c2ccccc21`, for which the pIC50 is 7.38.

`CS(=O)(=O)N1CC2(CCN(C(=O)C(COCc3ccccc3)NCc3cccc(Cl)c3)CC2)c2ccccc21` (centres undefined) had a negative-log IC50 (pIC50) of 7.24.

Regarding `CS(=O)(=O)N1CC2(CCN(C(=O)C(COCc3ccccc3)NCc3ccc(Cl)cc3)CC2)c2ccccc21` (centres undefined), the pIC50 is 7.57. The value for `CS(=O)(=O)N1CC2(CCN(C(=O)C(CCc3ccc(Cl)c(Cl)c3)NCc3ccccc3)CC2)c2ccccc21` (centres undefined) was 6.34; that for `CS(=O)(=O)N1CC2(CCN(C(=O)[C@H](COCc3ccccc3Cl)NCc3ccccc3)CC2)c2ccccc21` was 7.44. Take `CS(=O)(=O)N1CC2(CCN(C(=O)C(COCc3ccccc3)NCc3cccc(Br)c3)CC2)c2ccccc21` (centres undefined): the pIC50 was 7.22. Consider `CS(=O)(=O)N1CC2(CCN(C(=O)[C@H](COCc3cccc(Cl)c3)NCc3ccc(Cl)c(Cl)c3)CC2)c2ccccc21`, for which the negative logarithm of the IC50 (pIC50) is 7.96. The value for `COc1ccc(CNC(COCc2ccccc2)C(=O)N2CCC3(CC2)CN(S(C)(=O)=O)c2ccccc23)cc1` (centres undefined) was 7.24; that for `CS(=O)(=O)N1CC2(CCN(C(=O)C(COCc3ccccc3)NCc3ccc(Cl)c(Cl)c3)CC2)c2ccccc21` (centres undefined) was 7.92. Compound `CS(=O)(=O)N1CC2(CCN(C(=O)[C@H](CSCc3ccc(Cl)c(Cl)c3)NCc3ccccc3)CC2)c2ccccc21` showed a pIC50 of 7.89. The value for `CS(=O)(=O)N1CC2(CCN(C(=O)[C@H](CS(=O)(=O)Cc3ccc(Cl)c(Cl)c3)NCc3ccccc3)CC2)c2ccccc21` was 7.20; that for `CS(=O)(=O)N1CC2(CCN(C(=O)[C@H](COCc3cccc(Cl)c3)NCc3ccccc3)CC2)c2ccccc21` was 8.11; that for `COc1ccccc1CNC(COCc1ccccc1)C(=O)N1CCC2(CC1)CN(S(C)(=O)=O)c1ccccc12` (centres undefined) was 6.79. With `CS(=O)(=O)N1CC2(CCN(C(=O)C(COCc3ccccc3)NCc3cccc(F)c3)CC2)c2ccccc21` (centres undefined) the figure was 6.80; with `COc1cccc(CNC(COCc2ccccc2)C(=O)N2CCC3(CC2)CN(S(C)(=O)=O)c2ccccc23)c1` (centres undefined), 7.15; with `CS(=O)(=O)N1CC2(CCN(C(=O)C(CNCc3ccc(Cl)c(Cl)c3)NCc3ccccc3)CC2)c2ccccc21` (centres undefined), 7.62.

As for `CN(C)c1ccc(CNC(COCc2ccccc2)C(=O)N2CCC3(CC2)CN(S(C)(=O)=O)c2ccccc23)cc1` (centres undefined), the pIC50 is 7.48. The value for `CS(=O)(=O)N1CC2(CCN(C(=O)C(COCc3ccccc3)NCc3ccc(Cl)cc3Cl)CC2)c2ccccc21` (centres undefined) was 7.00; that for `CS(=O)(=O)N1CC2(CCN(C(=O)C(COCc3ccccc3)NC(=O)c3ccc(Cl)c(Cl)c3)CC2)c2ccccc21` (centres undefined) was 6.59; that for `CS(=O)(=O)N1CC2(CCN(C(=O)[C@H](COCc3ccc(Cl)c(Cl)c3)NCc3ccc(Cl)c(Cl)c3)CC2)c2ccccc21` was 8.77. With `CS(=O)(=O)N1CC2(CCN(C[C@H](COCc3ccc(Cl)c(Cl)c3)NCc3ccccc3)CC2)c2ccccc21` the figure was 6.77. Regarding `CS(=O)(=O)N1CC2(CCN(C(=O)C(CCCc3ccc(Cl)c(Cl)c3)NCc3ccccc3)CC2)c2ccccc21` (centres undefined), the pIC50 is 8.48. Consider `CS(=O)(=O)N1CC2(CCN(C(=O)C(COCc3ccccc3)NCc3cc(Cl)cc(Cl)c3)CC2)c2ccccc21` (centres undefined), for which the negative logarithm of the IC50 (pIC50) is 7.10.

For `CS(=O)(=O)N1CC2(CCN(C(=O)C(COCc3ccccc3)NC(=O)Cc3ccc(Cl)c(Cl)c3)CC2)c2ccccc21` (centres undefined), the pIC50 was 7.37. Compound `CS(=O)(=O)N1CC2(CCN(C(=O)C(COCc3ccccc3)NCc3cccc(C#N)c3)CC2)c2ccccc21` (centres undefined) gave a pIC50 of 6.82. Turning to `CN(Cc1ccc(Cl)c(Cl)c1)CC(NCc1ccccc1)C(=O)N1CCC2(CC1)CN(S(C)(=O)=O)c1ccccc12` (centres undefined), the pIC50 was 7.27. The value for `CS(=O)(=O)N1CC2(CCN(C(=O)C(COCc3ccccc3)NCc3cccc(Cl)c3Cl)CC2)c2ccccc21` (centres undefined) was 6.82; that for `CS(=O)(=O)N1CC2(CCN(C(=O)C(COCc3ccccc3)NCc3cccc([N+](=O)[O-])c3)CC2)c2ccccc21` (centres undefined) was 6.92. The value for `CS(=O)(=O)N1CC2(CCN(C(=O)[C@H](COCc3ccc(Cl)cc3)NCc3ccc(Cl)c(Cl)c3)CC2)c2ccccc21` was 7.64; that for `CS(=O)(=O)N1CC2(CCN(C(=O)[C@H](COCc3ccc(Cl)cc3)NCc3ccccc3)CC2)c2ccccc21` was 8.18. Take `CS(=O)(=O)N1CC2(CCN(C(=O)C(COCc3ccccc3)NCc3ccccc3)CC2)c2ccccc21` (centres undefined): the pIC50 is 7.10. With `CS(=O)(=O)N1CC2(CCN(C(=O)C(N)COCc3ccccc3)CC2)c2ccccc21` (centres undefined) the figure was 5.70.

The values above are taken from ChEMBL document CHEMBL1130886, “Serine derived NK1 antagonists. 1: The effect of modifications to the serine substituents” (Bioorg Med Chem Lett, 1998).
